Where a name gives a salt, the structure may show the parent alone.
The compounds below were run against T1, CETP (Homo sapiens, UniProt P11597) (assay: Inhibitory effect in vitro on CETP activity in total plasma). Conditions: plasma of healthy subject with [3H]CE-HDL3, 37° C., 4 hr; average values.
T1 construct: The donor lipoprotein obtained above was added to plasma of healthy subject; from tissue; host or cells: whole plasma of healthy subject
T1 sequence (P11597 18-493): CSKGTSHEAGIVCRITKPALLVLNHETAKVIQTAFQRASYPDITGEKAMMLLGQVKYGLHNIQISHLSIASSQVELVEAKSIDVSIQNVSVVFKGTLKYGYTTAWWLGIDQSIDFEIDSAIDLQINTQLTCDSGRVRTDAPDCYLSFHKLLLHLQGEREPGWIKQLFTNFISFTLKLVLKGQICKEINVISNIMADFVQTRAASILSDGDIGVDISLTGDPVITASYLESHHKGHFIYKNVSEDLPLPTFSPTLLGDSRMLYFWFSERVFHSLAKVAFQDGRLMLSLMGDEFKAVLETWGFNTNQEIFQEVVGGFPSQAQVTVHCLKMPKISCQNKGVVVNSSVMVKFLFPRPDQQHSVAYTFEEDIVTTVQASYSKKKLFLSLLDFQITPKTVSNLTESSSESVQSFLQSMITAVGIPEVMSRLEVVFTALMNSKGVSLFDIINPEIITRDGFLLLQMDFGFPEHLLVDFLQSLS
Format: biochemical
How it was run: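 Healthy-donor plasma spiked with [3H]cholesteryl ester-labelled HDL3 (1,000 dpm/μL) was incubated with compound (DMF vehicle) for 4 hr at 37 °C or 4 °C. HDL was separated by MgCl2/dextran sulfate precipitation and supernatant radioactivity counted. IC50 is the concentration giving 50% inhibition of CETP activity.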

Row | Compound | IC50 [nM]
1 | CCN(CCCCC(=O)OC)c1cc2c(cc1CN(Cc1cc(C(F)(F)F)cc(C(F)(F)F)c1)c1nnn(C)n1)CCC2.Cl [Example 35, methyl 5-[N-(6-{[N′-[3,5-bis(trifluoromethyl)benzyl]-N′-(2-methyl-2H-tetrazol-5-yl)amino]methyl}indan-5-yl)-N-ethylamino]pentanoate hydrochloride] | 350
2 | CCN(CCCCC(=O)OC)c1cc2c(cc1CN(Cc1cc(C(F)(F)F)cc(C(F)(F)F)c1)c1ccn(C)n1)CCC2.Cl [Example 37, methyl 5-[N-(6-[{N′-[3,5-bis(trifluoromethyl)benzyl]-N′-(1-methyl-1H-pyrazol-3-yl)amino]methyl}indan-5-yl)-N-ethylamino]pentanoate hydrochloride] | 800
3 | CCN(C[C@H]1CC[C@H](CO)CC1)c1ccc(OC(F)(F)F)cc1CN(Cc1cc(C(F)(F)F)cc(C(F)(F)F)c1)c1nnn(C)n1 [Example 119, trans-(4-{[N-(2-{[N′-[3,5-bis(trifluoromethyl)benzyl]-N′-(2-methyl-2H-tetrazol-5-yl)amino]methyl}-4-trifluoromethoxyphenyl)-N-ethylamino]methyl}cyclohexyl)methanol hydrochloride] | 130
4 | CCN(CC(C)(C)CCCC(=O)O)c1cc2c(cc1CN(Cc1cc(C(F)(F)F)cc(C(F)(F)F)c1)c1nnn(C)n1)CCC2 [Example 120, 6-[N-(6-{[N′-[3,5-bis(trifluoromethyl)benzyl]-N′-(2-methyl-2H-tetrazol-5-yl)amino]methyl}indan-5-yl)-N-ethylamino]-5,5-dimethylhexanoic acid hydrochloride] | 280
5 | CCCN(C[C@H]1CC[C@H](C(=O)O)CC1)c1ccc(OC(F)(F)F)cc1CN(Cc1cc(C(F)(F)F)cc(C(F)(F)F)c1)c1nnn(C)n1 [Example 121, trans-4-{[N-(2-{[N′-[3,5-bis(trifluoromethyl)benzyl]-N′-(2-methyl-2H-tetrazol-5-yl)amino]methyl}-4-trifluoromethoxyphenyl)-N-propylamino]methyl}cyclohexanecarboxylic acid hydrochloride] | 230
6 | CC(C)CN(C[C@H]1CC[C@H](C(=O)O)CC1)c1ccc(OC(F)(F)F)cc1CN(Cc1cc(C(F)(F)F)cc(C(F)(F)F)c1)c1nnn(C)n1 [Example 122, trans-4-{[N-(2-{[N′-[3,5-bis(trifluoromethyl)benzyl]-N′-(2-methyl-2H-tetrazol-5-yl)amino]methyl}-4-trifluoromethoxyphenyl)-N-isobutylamino]methyl}cyclohexanecarboxylic acid hydrochloride] | 240
7 | CCN(C[C@H]1CC[C@H](C(=O)O)CC1)c1ccc(OC(F)(F)F)cc1CN(Cc1cc(C(F)(F)F)cc(C(F)(F)F)c1)c1ccc(C)cc1 [Example 127, trans-4-{[N-(2-{[N′-[3,5-bis(trifluoromethyl)benzyl]-N′-(p-tolyl)amino]methyl}-4-trifluoromethoxyphenyl)-N-ethylamino]methyl}cyclohexanecarboxylic acid hydrochloride] | 370
8 | CCN(C[C@H]1CC[C@H](C(=O)O)CC1)c1ccc(OC(F)(F)F)cc1CN(Cc1cc(Cl)cc(Cl)c1)c1nnn(C)n1 [Example 129, trans-4-{[N-(2-{[N′-(3,5-dichlorobenzyl)-N′-(2-methyl-2H-tetrazol-5-yl)amino]methyl}-4-trifluoromethoxyphenyl)-N-ethylamino]methyl}cyclohexanecarboxylic acid hydrochloride] | 610
9 | CCN(C[C@H]1CC[C@H](C(=O)O)CC1)c1ccc(OC(F)(F)F)cc1CN(Cc1cc(Cl)cc(C(F)(F)F)c1)c1nnn(C)n1 [Example 131, trans-4-{[N-(2-{[N′-(3-chloro-5-trifluoromethylbenzyl)-N′-(2-methyl-2H-tetrazol-5-yl)amino]methyl}-4-trifluoromethoxyphenyl)-N-ethylamino]methyl}cyclohexanecarboxylic acid hydrochloride] | 170
10 | CCN(C[C@H]1CC[C@H](CCC(=O)O)CC1)c1ccc(OC(F)(F)F)cc1CN(Cc1cc(C(F)(F)F)cc(C(F)(F)F)c1)c1nnn(C)n1 [Example 135, trans-3-(4-{[N-(2-{[N′-[3,5-bis(trifluoromethyl)benzyl]-N′-(2-methyl-2H-tetrazol-5-yl)amino]methyl}-4-trifluoromethoxyphenyl)-N-ethylamino]methyl}cyclohexyl)propionic acid hydrochloride] | 220
11 | CCN(C[C@H]1CC[C@H](CC(=O)O)CC1)c1cc2c(cc1CN(Cc1cc(C(F)(F)F)cc(C(F)(F)F)c1)c1nnn(C)n1)OC(F)(F)C(F)(F)O2 [Example 137, trans-(4-{[N-(7-{[N′-[3,5-bis(trifluoromethyl)benzyl]-N′-(2-methyl-2H-tetrazol-5-yl)amino]methyl}-2,2,3,3-tetrafluoro-2,3-dihydrobenzo[1,4]dioxin-6-yl)-N-ethylamino]methyl}cyclohexyl)acetic acid hydrochloride] | 140
12 | CCN(C[C@H]1CC[C@H](CC(N)=O)CC1)c1cc2c(cc1CN(Cc1cc(C(F)(F)F)cc(C(F)(F)F)c1)c1nnn(C)n1)OC(F)(F)C(F)(F)O2 [Example 138, trans-2-(4-{[N-(7-{[N′-[3,5-bis(trifluoromethyl)benzyl]-N′-(2-methyl-2H-tetrazol-5-yl)amino]methyl}-2,2,3,3-tetrafluoro-2,3-dihydrobenzo[1,4]dioxin-6-yl)-N-ethylamino]methyl}cyclohexyl)acetamide hydrochloride] | 160
13 | CCN(C[C@H]1CC[C@H](CCO)CC1)c1ccc(OC(F)(F)F)cc1CN(Cc1cc(C(F)(F)F)cc(C(F)(F)F)c1)c1nnn(C)n1 [Example 140, trans-2-(4-{[N-(2-{[N′-[3,5-bis(trifluoromethyl)benzyl]-N′-(2-methyl-2H-tetrazol-5-yl)amino]methyl}-4-trifluoromethoxyphenyl)-N-ethylamino]methyl}cyclohexyl)ethanol hydrochloride] | 120
14 | CCN(C[C@H]1CC[C@H](CO)CC1)c1cc(C(F)(F)F)c(C)cc1CN(Cc1cc(C(F)(F)F)cc(C(F)(F)F)c1)c1nnn(C)n1 [Example 141, trans-(4-{[N-(2-{[N′-[3,5-bis(trifluoromethyl)benzyl]-N′-(2-methyl-2H-tetrazol-5-yl)amino]methyl}-4-methyl-5-trifluoromethylphenyl)-N-ethylamino]methyl}cyclohexyl)methanol hydrochloride] | 120
15 | trans-4-{[N-(6-{[N′-(3-cyano-5-trifluoromethylbenzyl)-N′-(3-methylisoxazol-5-yl)amino]methyl}indan-5-yl)-N-ethylamino]methyl}cyclohexanecarboxylic acid hydrochloride [Example 54] | 790

Each compound was assayed on CETP (assay: Inhibitory effect exo vivo on CETP activity in total plasma of normal hamster). Conditions: single oral dose 30 mg/kg, blood taken 2 hr after administration, average values.
Description: Potassium bromide (KBr) was added to plasma (40 mL) of healthy subject and the mixture was adjusted to have a specific density d=1.125 g/mL. The mixture was subjected to density gradient centrifugation (227,000×g, 4° C., 17 hr) and a fraction showing a specific density of d>1.125 g/mL (HDL3 fraction) was harvested. The obtained fraction was dialyzed against PBS solution [10 mmol/L Na2HPO4; 10 mmol/L NaH2PO4; 0.15 mol/L NaCl; […] (pH 7.4)]. Then, tritium-labeled cholesterol (37 MBq) was dissolved in 95% ethanol, gradually added to the above-mentioned HDL3 fraction with stirring and incubated at 37° C. for 18 hr. [By this operation, tritium-labeled cholesterol was esterified by the action of lecithin acyl transferase (LCAT) present on the HDL3 surface and taken up into HDL3 as tritium-labeled cholesteryl ester ([^3H]CE)]. After incubation, KBr was added, the mixture was adjusted to have a specific density d=1.21 g/mL, subjected to density gradient centrifugation (227,000×g, 4° C., 17 hr) and a fraction of specific density […] was harvested. The obtained fraction was dialyzed against the aforementioned PBS solution to give HDL3 incorporating [^3H]CE ([^3H]CE-HDL3, specific density: 1.125<d<1.21, specific activity: 10,000 dpm/μL), which was used as a donor lipoprotein.
The compound of the present invention was suspended in 0.5% methyl cellulose solution and orally administered once to a healthy hamster with a plastic gavage needle. Blood was taken at 2 or 4 hr after the administration and CETP activity in plasma was measured according to the following method.
The donor lipoprotein obtained above was added to hamster plasma (100 μL) to prepare [^3H]CE-HDL3-containing plasma (ca. 1,000 dpm/μL). The [^3H]CE-HDL3-containing plasma was dispensed to two microtubes by 25 μL each, and one was incubated at 37° C. and the other was incubated at 4° C. for 4 hr each. After ice-cooling, TBS solution (50 μl) containing 1 mol/L magnesium chloride and 2% dextran sulfate was added to each microtube and the mixture was thoroughly stirred. After keeping at […] for 30 min, the mixture was centrifuged (10,000×g, 4° C., 20 min), and the radioactivity in the obtained supernatant (HDL fraction) was measured with a liquid scintillation counter. The radioactivity of the [^3H]CE-HDL3-containing plasma was measured with a liquid scintillation counter, and taken as the total radioactivity. The transfer rate of [^3H]CE was calculated from the following formula using the total radioactivity (Total count), radioactivity by 37° C. incubation (37° C. count) and radioactivity by 4° C. incubation (4° C. count) of the sample of each individual and taken as the CETP activity. CETP activity(transfer ratio (%))={[(4° C. count)−(37° C. count)]/(Total count)}×100
The CETP activity inhibitory ratio of each compound administration group based on the CETP activity of the solvent administration group as 100% was calculated from the following formula and expressed in %.
CETP activity inhibitory ratio (%)=100−[(CETP activity of each compound administration group)/(CETP activity of solvent administration group)×100]

Row | Compound | CETP activity (%) 2 (hr later) [%]
16 | CCN(CCCCC(=O)OC)c1cc2c(cc1CN(Cc1cc(C(F)(F)F)cc(C(F)(F)F)c1)c1nnn(C)n1)CCC2.Cl [Example 35, methyl 5-[N-(6-{[N′-[3,5-bis(trifluoromethyl)benzyl]-N′-(2-methyl-2H-tetrazol-5-yl)amino]methyl}indan-5-yl)-N-ethylamino]pentanoate hydrochloride] | 37.8
17 | CCN(CCCCC(=O)OC)c1cc2c(cc1CN(Cc1cc(C#N)cc(C(F)(F)F)c1)c1nnn(C)n1)CCC2.Cl [Example 36] | 33.3
18 | CCN(CCCCC(=O)OC)c1cc2c(cc1CN(Cc1cc(C(F)(F)F)cc(C(F)(F)F)c1)c1ccn(C)n1)CCC2.Cl [Example 37, methyl 5-[N-(6-[{N′-[3,5-bis(trifluoromethyl)benzyl]-N′-(1-methyl-1H-pyrazol-3-yl)amino]methyl}indan-5-yl)-N-ethylamino]pentanoate hydrochloride] | 45.4

From patent US7807701B2, “Dibenzylamine compounds and pharmaceutical use thereof” (Japan Tobacco Inc., priority 2002, dated 2010)
